Reference: patent US11766430B2, “Methods of using a phenoxypropylamine compound to treat pain” (Minerva Neurosciences, Inc., priority 2018, dated 2023)
“And” between values parts separate entries of the source, which are not always exact repeats. Equal values may be shown once.

Test system: carrageenan-induced mechanical hyperalgesia in rats
Assay: Carrageenan-induced mechanical hyperalgesia, paw pressure test, time course to 240 min (Example 2)
Assay type: in vivo, male Sprague-Dawley rats
Settings: 3 mg/kg s.c.
Experimental: In this model, inflammation is induced by intraplantar injection of carrageenan (2%) into the right hindpaw of the rat. Three hours later, reaction thresholds are measured using the paw pressure test. Pressure is gradually applied to both hind paws (inflamed and control) of the rat, and reaction thresholds are determined as the pressure (g) required to elicit paw withdrawal or vocalization. Morphine (3 mg/kg, s.c.) was used as a positive control.
The experiments in this study used fifty (50) male Sprague-Dawley rats (SPF status, Janvier, France), each weighing 204-260 grams. The rats were housed in a temperature (20-24° C.) and relative humidity (45%-65%) controlled room and acclimated to an artificial day/night cycle of 12 hours light (6.30 a.m. to 6.30 p.m.)/12 hours darkness. Rats had free access to sterilized tap water and were fed ad libitum with pelleted complete diet (reference A04, S.A.F.E.). Rats were housed 4 per cage (cages Type E) and were acclimated for a period of at least 5 days before any testing. Each rat was identified by tail markings. Based on the SPF status of the animal facilities, there is no reason to expect that contaminants were present in the food, water or bedding, at levels capable of interfering with the results of the tests.
Pain Test: Static mechanical hyperalgesia was assessed using the Paw Pressure test or Randall & Selitto test (Randall, L. O. and Selitto, J. J., A method for measurement of analgesic activity on inflamed tissue, Arch Int Pharmacodyn, 1957(111): 409-419). This test requires the application of an increasing pressure on the hind paws between a flat surface and a blunt pointer. This test is usually used with animals with one hind paw inflamed by an injection or injured by ligation, and one normal hind paw, to evaluate drugs for analgesic action. The apparatus exerts a steadily increasing force and reaction threshold is determined as the pressure (g) required to elicit paw withdrawal and/or vocalization. In the experiment, animals were gently handled by the experimenter and static mechanical hyperalgesia was assessed. Each reaction threshold measurement was done for both hind paws.
Five (5) experimental groups of 10 rats each were used. Each group was first injected with of 100 μL of a 2% carrageenan suspension in the plantar aspect of the right hindpaw. Three hours after carrageenan injection, paw withdrawal threshold was measured using the paw pressure test (Baseline). The 5 groups were then administered the following: • Group 1: vehicle (0.5% HPMC), i.p., solution (negative control); • Group 2: MIN-117 (0.01 mg/kg, i.p.) in 0.5% HPMC, suspension; • Group 3: MIN-117 (0.1 mg/kg, i.p.) in 0.5% HPMC, suspension; • Group 4: MIN-117 (1 mg/kg, i.p.) in 0.5% HPMC, suspension; and • Group 5: morphine (3 mg/kg, s.c.) in 0.9% NaCl, solution (positive control).
After administering vehicle, MIN-117, or morphine, the antihyperalgesic effect of the compounds was evaluated using the paw pressure test at 0 min. (T0), 30 min., 60 min., 120 min., and 240 min.
Vehicle and MIN-117 were administered intraperitoneally at 10 mL/kg. Morphine was subcutaneously administered at 5 mL/kg. Dosing and testing were performed in a random order by a blinded experimenter except for the morphine-treated group. Doses were expressed in terms of free active substance. Rats were sacrificed at the end of the experiment by CO2 inhalation pending subsequent removal by a certified company.
Results were assessed as: the paw withdrawal threshold (mean±s.e.m.) in grams of contact pressure for each group, calculated from individual paw withdrawal thresholds; the percentage of variation of the paw withdrawal threshold calculated from the mean value of the vehicle-treated group; and/or the percentage of activity. To determine a statistical effect of the test substance and the reference substance, data were analyzed by a non-parametrical test. The significance level was p<0.05.

[1] = 120 min, listed as Morphine HCl
[2] = 240 min, listed as Morphine HCl
[3] = Baseline, listed as Morphine HCl
[4] = T0 (baseline before dosing), listed as Morphine HCl
[5] = T0 + 30 min, listed as Morphine HCl

CN1CC[C@]23c4c5ccc(O)c4O[C@H]2[C@@H](O)C=C[C@H]3[C@H]1C5 [Morphine, reference compound]
Time of maximum effect on injured paw withdrawal threshold after treatment: 30 min | Nociceptive threshold, control paw, individual rats (30 min, listed as Morphine HCl): 680 g (9×) and 520 g | Nociceptive threshold, injured paw, individual rats (30 min, listed as Morphine HCl): 600 g and 620 g (2×) and 560 g and 640 g and 680 g (3×) and 440 g and 400 g | Nociceptive threshold, control paw, individual rats (60 min, listed as Morphine HCl): 580 g and 680 g (8×) and 520 g | Nociceptive threshold, injured paw, individual rats (60 min, listed as Morphine HCl): 440 g and 600 g (3×) and 460 g and 620 g (2×) and 680 g and 480 g and 380 g | Nociceptive threshold, control paw, individual rats [1]: 480 g and 320 g and 440 g (3×) and 500 g and 380 g and 520 g and 460 g and 360 g | Nociceptive threshold, injured paw, individual rats [1]: 280 g (3×) and 260 g and 400 g and 320 g (2×) and 440 g and 220 g and 200 g | Nociceptive threshold, control paw, individual rats [2]: 320 g (4×) and 360 g (4×) and 400 g and 420 g | Nociceptive threshold, injured paw, individual rats [2]: 160 g (3×) and 180 g (3×) and 200 g (2×) and 240 g and 140 g | Nociceptive threshold, control paw, individual rats [3]: 320 g (2×) and 440 g and 420 g (3×) and 360 g (2×) and 460 g and 380 g | Nociceptive threshold, injured paw, individual rats [3]: 160 g and 200 g (5×) and 220 g and 180 g (3×) | % activity, injured paw (T0 (baseline before dosing)): 2% | % variation vs control paw, injured paw (T0 (baseline before dosing)): −51% | % variation vs vehicle-treated group, injured paw (T0 (baseline before dosing)): 5% | Nociceptive threshold, control paw (mean ± s.e.m.) (T0 (baseline before dosing)): 390.0 ± 15.6 g | Nociceptive threshold, injured paw (mean ± s.e.m.) (T0 (baseline before dosing)): 192 ± 5.3 g | Nociceptive threshold, control paw (mean ± s.e.m.) [4]: 390. g | Nociceptive threshold, injured paw (mean ± s.e.m.) [4]: 192 g | % activity, injured paw (T0 + 30 min): 230% | % variation vs control paw, injured paw (T0 + 30 min): −11% | % variation vs pre-drug threshold, injured paw (T0 + 30 min): 208% | Nociceptive threshold, control paw (mean ± s.e.m.) (T0 + 30 min): 664 g | Nociceptive threshold, injured paw (mean ± s.e.m.) (T0 + 30 min): 592 ± 31.3 g | % variation vs vehicle-treated group, injured paw [5]: 233% | Nociceptive threshold, injured paw (mean ± s.e.m.) [5]: 592 g | % activity, injured paw (T0 + 60 min): 214% | % variation vs control paw, injured paw (T0 + 60 min): −16% | % variation vs pre-drug threshold, injured paw (T0 + 60 min): 185% | % variation vs vehicle-treated group, injured paw (T0 + 60 min): 191% | Nociceptive threshold, control paw (mean ± s.e.m.) (T0 + 60 min): 654 g | Nociceptive threshold, injured paw (mean ± s.e.m.) (T0 + 60 min): 548 ± 31.3 g | Nociceptive threshold, injured paw (mean ± s.e.m.) (T0 + 60 min, listed as Morphine HCl): 548 g | % activity, injured paw (T0 + 120 min): 72% | % variation vs control paw, injured paw (T0 + 120 min): −31% | % variation vs pre-drug threshold, injured paw (T0 + 120 min): 56% | % variation vs vehicle-treated group, injured paw (T0 + 120 min): 61% | Nociceptive threshold, control paw (mean ± s.e.m.) (T0 + 120 min): 434 g | Nociceptive threshold, injured paw (mean ± s.e.m.) (T0 + 120 min): 300 ± 23.5 g | Nociceptive threshold, injured paw (mean ± s.e.m.) (T0 + 120 min, listed as Morphine HCl): 300 g | % activity, injured paw (T0 + 240 min): −4% | % variation vs control paw, injured paw (T0 + 240 min): −49% | % variation vs pre-drug threshold, injured paw (T0 + 240 min): −6% | % variation vs vehicle-treated group, injured paw (T0 + 240 min): −3% | Nociceptive threshold, control paw (mean ± s.e.m.) (T0 + 240 min): 354 g | Nociceptive threshold, injured paw (mean ± s.e.m.) (T0 + 240 min): 180 ± 8.9 g | Nociceptive threshold, injured paw (mean ± s.e.m.) (T0 + 240 min, listed as Morphine HCl): 180 g | Effect on injured paw withdrawal threshold vs vehicle-treated group (in words) (from 30 min. to 120 min. after administration): marked and significant increase
